Results on four compounds are retold here after patent US6203817A (priority 1998, dated 2001).

Data set [1] can be described thus: Critical micelle concentration (CMC) in water. It is filed as physicochemical.
Text: According to this embodiment, the salt form is selected by measuring its CMC in water by methods known in the art, for example, by the use of a surface tensiometer. […] The CMC provides a measure of the surface activity of the particular drug salt.
The subject of data set [2] is skin of hairless guinea pigs. The data set is described as follows: Urinary excretion kinetics / skin depot of fluoxetine. It is filed as in vivo, hairless guinea pig. The source says: (§1) Skin sites on hairless guinea pigs were lightly washed.
The conditions of data set [3]: cited from earlier work.
Data set [4] deals with skin of hairless guinea pigs. The data set is described as follows: Paroxetine gels skin irritation at equivalent flux. Format: in vivo, hairless guinea pig. The following applies: FIG. 8.
Text: as §1
All paroxetine gels contained paroxetine base, 40% ethanol, 35% propylene glycol, water, and 5% HPMC. Placebo gels were identical with water replacing the paroxetine. Paroxetine acetate gels contained paroxetine base, acetic acid, water, and 2% HEC. […] All paroxetine gels contained approximately 28 μCi ^3 H paroxetine per ml.

Each structure is given as a SMILES string.

As to `CN(C)CCCN1c2ccccc2Sc2ccc(Cl)cc21` [chlorpromazine acetate], the CMC in data set [1] stood at 0.02 M.

The compound `CNCCC(Oc1ccc(C(F)(F)F)cc1)c1ccccc1` (centres unmarked) [fluoxetine acetate] yielded a CMC in data set [1] of 0.05 M. The “skin depot (urinary excretion)” value in data set [2] (acidified with excess acetic acid to pH 5) is “the skin depot is eliminated”; in data set [2] (fluoxetine acetate, pH 6.5) it was “the skin depot is reduced but is still present”. Besides, the “kinetics of elimination (urinary excretion)” value in data set [2] (acidified with excess acetic acid to pH 5, compared with intravenous administration) was “close to that observed following intravenous administration of the drug”.

Consider `CNCCC(Oc1ccc(C(F)(F)F)cc1)c1ccccc1` (centres unmarked) [fluoxetine base, fluoxetine], for which the pKa – broadly, the pH at which an ionisable group is half protonated – in data set [3] is 9.7. In data set [2] (fluoxetine base), the “skin depot (urinary excretion)” value is given as “a skin depot is observed”.

On to `Fc1ccc([C@@H]2CCNC[C@H]2COc2ccc3c(c2)OCO3)cc1` [paroxetine acetate], for which the “irritation vs paroxetine base gels at equivalent flux” value in data set [4] was “reduced”.
